Tests used:
[1] = tested on: HCC827 (EGFR DelE746_A750); test: Inhibition test for growth of cancer cell expressing EGFR (SRB), HCC827; format: cell-based; conditions: Homo sapiens, HCC827, 72 h, HCC827 cells, 72 hours, SRB; read-out: GI50 HCC827 EGFR DelE746_A750;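 further: cells in 96-well plates exposed to tenfold serial dilutions from 100 µM, fixed with trichloroacetic acid, SRB-stained, absorbance read at 540 nm, DMSO under 1%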
Procedure: (§4) A431 cell line was incubated in a high-glucose DMEM (Dulbecco's Modified Eagle's Medium) supplemented with 10% fetal bovine serum (FBS) and 1% penicillin/streptomycin (Gibco BRL), and HCC827 and NCI-H1975 cell lines were incubated in an RPMI medium supplemented with 10% FBS, 1% penicillin/streptomycin and 1% sodium pyruvate.
(§5) The cancer cell lines stored in a liquid nitrogen tank were each quickly thawed at 37° C., and centrifuged to remove the medium. The resulting cell pellet was mixed with a culture medium, incubated in a culture flask at 37° C. under 5% CO2 for 2 to 3 days, and the medium was removed. The remaining cells were washed with DPBS (Dulbecco's Phosphate Buffered Saline) and separated from the flask by using Tripsin-EDTA. […] 100 μl of the diluted cell solution was added to each well of a 96-well plate, and incubated at 37° C. under 5% CO2 for 1 day.
(§6) In case that the test compound was not soluble in DMSO, 1% HCl was added thereto and treated in a 40° C. water bath for 30 mins until a complete dissolution was attained. The DMSO solution containing test compound was diluted with a culture medium to a final concentration of 100 μM, and then diluted 10 times serially to 10^−6 μM (a final concentration of DMSO was less than 1%).
(§7) The medium was removed from each well of the 96-well plate. And then, 100 μl of a test compound solution was added to each well holding the cultured cells, and the plate was incubated at 37° C. under 5% CO2 for 72 hours (except that NCI-H1975 cells were incubated for 48 hours). After removing the medium from the plate, 50 μA of 10% trichloroacetic acid was added to each well, and the plate was kept at 4° C. for 1 hour to fix the cells to the bottom of the plate. The added 10% trichloroacetic acid solution was removed from each well, the plate was dried, 100 μA of an SRB (Sulforhodamine-B) dye solution at a concentration of 0.4% dissolved in 1% acetic acid was added thereto, and the resulting mixture was reacted for 10 mins at room temperature. After removing the dye solution, the plate was washed with water, and well dried. When the dye solution was not effectively removed by water, 1% acetic acid was used. 150 μA of 10 mM trisma base was added to each well, and the absorbance at 540 nm wavelength was determined with a microplate reader.

[2] = tested on: NCI-H1975 (EGFR L858R/T790M); test: Inhibition test for growth of cancer cell expressing EGFR (MTS), NCI-H1975; format: cell-based; conditions: Homo sapiens; NCI-H1975 cells, 48 hours, MTS; read-out: GI50 NCI-H1975 EGFR L858R/T790M
Procedure: as §4, §5, §6, §7

A431 (EGFR WT) = test: Inhibition test for growth of cancer cell expressing EGFR (SRB), A431; format: cell-based; conditions: Homo sapiens, A-431; A431 cells, 72 hours, SRB; read-out: GI50 A431 EGFR WT;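 further: cells in 96-well plates exposed to tenfold serial dilutions from 100 µM down to 10^−6 µM, DMSO under 1%, SRB staining read as absorbance at 540 nm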
EGFR WT = target: T1, EGFR WT (Homo sapiens, UniProt P00533); test: z-lyte kinase assay, EGFR WT; format: biochemical
T1 construct: purchased Invitrogen

EGFR L858R/T790M = target: T2, EGFR L858R/T790M (Homo sapiens, UniProt P00533, L858R/T790M); test: z-lyte kinase assay, EGFR L858R/T790M; format: biochemical
T2 construct: purchased Invitrogen

BTK = target: T3, BTK (Homo sapiens, UniProt Q06187); test: z-lyte kinase assay, BTK; format: biochemical
T3 construct: purchased Invitrogen
Procedure: (§1) The inhibiting activities of the inventive compounds obtained in Examples 1 to 237 against EGFR WT and EGFR L858R/T790M kinase were determined using z-lyte kinase assay kit (Invitrogen, PV3191). The kinases used in the test were purchased from Invitrogen.
(§2) The compounds obtained in Examples 1 to 237 were each prepared to 10 mM DMSO solution, and a solution containing 4% DMSO were prepared therefrom and diluted to a concentration of 1 μM to 0.0001 μM. […] The test was conducted in a 384 well polystyrene flat-bottomed plates. 5 μl of the diluted solution of each compound was added to each well, and 10 μl of a mixture of peptide substrate and kinase in a suitable concentration and 5 μl of 5˜300 μM ATP solution were successively added thereto and the plate was incubated in a stirrer at room temperature for 60 minutes. After 60 mins, 10 μl of coloring reagent was added to the resulting mixture to initiate a fluorescence reaction of peptide substrate and a terminating solution was added thereto for terminating the reaction. A fluorescence value of each well was determined with a fluorescence meter (Molecular Device) at 400 nm (excitation filter) and 520 nm (emission filter). […] The calculation of IC50 and the result analysis were carried out by using Microsoft Excel.
(§3) The inhibiting activities of the inventive compounds obtained in Examples 1 to 237 against BTK and JAK3 kinases were determined, respectively. The procedure of Test Example 2 was repeated except that BTK and JAK3 kinases (Invitrogen) were employed instead of using the EGFR kinase.

JAK3 = target: T4, JAK3 (Homo sapiens, UniProt P52333); test: z-lyte kinase assay, JAK3; format: biochemical
T4 construct: purchased Invitrogen
T4 sequence (P52333 1-1124): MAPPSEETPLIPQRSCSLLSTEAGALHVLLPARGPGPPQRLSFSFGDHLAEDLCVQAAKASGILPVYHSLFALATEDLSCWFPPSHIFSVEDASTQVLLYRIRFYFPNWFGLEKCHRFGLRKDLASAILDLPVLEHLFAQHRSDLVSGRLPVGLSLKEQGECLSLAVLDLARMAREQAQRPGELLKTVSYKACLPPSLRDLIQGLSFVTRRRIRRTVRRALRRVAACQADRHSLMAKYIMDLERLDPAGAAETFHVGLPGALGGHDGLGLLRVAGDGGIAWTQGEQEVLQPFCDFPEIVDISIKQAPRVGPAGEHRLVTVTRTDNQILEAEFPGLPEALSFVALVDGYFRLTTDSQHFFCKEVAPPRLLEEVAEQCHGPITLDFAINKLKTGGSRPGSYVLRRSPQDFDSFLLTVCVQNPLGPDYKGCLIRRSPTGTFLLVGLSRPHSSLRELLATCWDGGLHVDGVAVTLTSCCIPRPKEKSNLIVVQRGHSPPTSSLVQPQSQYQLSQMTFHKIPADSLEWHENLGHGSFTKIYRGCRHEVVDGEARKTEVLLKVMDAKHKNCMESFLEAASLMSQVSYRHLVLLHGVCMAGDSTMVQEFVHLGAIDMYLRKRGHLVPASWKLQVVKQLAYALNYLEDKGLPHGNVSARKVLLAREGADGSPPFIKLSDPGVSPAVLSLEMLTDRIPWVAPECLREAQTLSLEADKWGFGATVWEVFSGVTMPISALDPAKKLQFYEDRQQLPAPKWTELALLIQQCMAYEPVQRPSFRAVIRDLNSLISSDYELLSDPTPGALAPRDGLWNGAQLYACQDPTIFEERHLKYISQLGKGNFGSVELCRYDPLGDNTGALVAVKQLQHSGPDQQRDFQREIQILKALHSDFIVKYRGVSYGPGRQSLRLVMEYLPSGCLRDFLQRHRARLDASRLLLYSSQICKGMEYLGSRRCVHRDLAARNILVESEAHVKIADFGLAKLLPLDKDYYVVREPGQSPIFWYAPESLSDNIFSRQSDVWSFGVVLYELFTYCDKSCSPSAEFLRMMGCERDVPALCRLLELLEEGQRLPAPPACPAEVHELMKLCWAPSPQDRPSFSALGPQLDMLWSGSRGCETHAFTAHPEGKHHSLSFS
Procedure: as §1, §2, §3

T3 sequence (Q06187 whole entry): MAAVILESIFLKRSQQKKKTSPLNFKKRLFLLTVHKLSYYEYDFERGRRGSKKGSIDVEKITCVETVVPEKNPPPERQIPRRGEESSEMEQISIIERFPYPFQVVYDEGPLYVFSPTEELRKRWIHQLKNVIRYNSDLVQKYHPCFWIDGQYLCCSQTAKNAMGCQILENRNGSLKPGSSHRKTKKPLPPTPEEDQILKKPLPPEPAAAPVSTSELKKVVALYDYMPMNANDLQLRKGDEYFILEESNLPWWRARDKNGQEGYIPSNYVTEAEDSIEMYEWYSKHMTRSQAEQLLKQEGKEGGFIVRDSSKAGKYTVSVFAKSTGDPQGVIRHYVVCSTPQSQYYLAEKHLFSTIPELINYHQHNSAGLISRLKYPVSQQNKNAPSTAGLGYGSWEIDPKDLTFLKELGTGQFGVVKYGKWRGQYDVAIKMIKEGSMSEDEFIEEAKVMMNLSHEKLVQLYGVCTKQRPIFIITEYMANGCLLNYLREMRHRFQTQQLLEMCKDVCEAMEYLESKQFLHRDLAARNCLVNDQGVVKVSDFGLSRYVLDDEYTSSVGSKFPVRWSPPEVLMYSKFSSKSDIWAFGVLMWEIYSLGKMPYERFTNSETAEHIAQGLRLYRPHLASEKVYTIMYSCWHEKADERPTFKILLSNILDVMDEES
T1 sequence (P00533 25-1210): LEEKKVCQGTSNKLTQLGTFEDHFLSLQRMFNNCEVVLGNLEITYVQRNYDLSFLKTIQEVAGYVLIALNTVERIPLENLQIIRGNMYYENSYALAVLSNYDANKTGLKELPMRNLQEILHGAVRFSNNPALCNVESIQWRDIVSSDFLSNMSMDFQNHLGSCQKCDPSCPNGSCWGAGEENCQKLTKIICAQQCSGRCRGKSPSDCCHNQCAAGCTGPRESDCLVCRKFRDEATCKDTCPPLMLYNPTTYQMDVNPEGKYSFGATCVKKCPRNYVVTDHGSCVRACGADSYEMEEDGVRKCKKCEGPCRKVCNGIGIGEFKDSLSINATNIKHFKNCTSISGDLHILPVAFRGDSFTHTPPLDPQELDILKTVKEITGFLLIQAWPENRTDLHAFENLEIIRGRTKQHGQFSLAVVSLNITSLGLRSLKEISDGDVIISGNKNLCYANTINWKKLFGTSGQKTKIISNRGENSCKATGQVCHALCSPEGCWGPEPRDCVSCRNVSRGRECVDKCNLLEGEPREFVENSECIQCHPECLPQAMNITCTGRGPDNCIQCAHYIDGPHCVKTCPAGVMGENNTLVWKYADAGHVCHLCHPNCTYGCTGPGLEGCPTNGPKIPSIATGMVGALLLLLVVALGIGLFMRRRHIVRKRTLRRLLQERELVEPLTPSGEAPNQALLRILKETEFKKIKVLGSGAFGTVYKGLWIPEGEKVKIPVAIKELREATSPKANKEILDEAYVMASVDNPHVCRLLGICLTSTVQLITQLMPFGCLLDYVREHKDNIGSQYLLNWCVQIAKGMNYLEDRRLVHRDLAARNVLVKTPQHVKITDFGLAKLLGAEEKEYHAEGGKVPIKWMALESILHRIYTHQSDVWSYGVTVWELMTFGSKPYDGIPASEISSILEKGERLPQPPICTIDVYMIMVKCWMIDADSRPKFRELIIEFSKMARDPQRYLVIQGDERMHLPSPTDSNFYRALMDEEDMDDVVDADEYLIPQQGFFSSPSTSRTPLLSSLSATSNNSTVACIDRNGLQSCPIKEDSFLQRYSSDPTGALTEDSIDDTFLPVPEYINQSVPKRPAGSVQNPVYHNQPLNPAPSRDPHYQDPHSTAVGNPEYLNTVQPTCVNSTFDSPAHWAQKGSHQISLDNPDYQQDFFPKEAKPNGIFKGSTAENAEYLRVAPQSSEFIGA
T2 sequence (P00533 25-1210 T790M/L858R): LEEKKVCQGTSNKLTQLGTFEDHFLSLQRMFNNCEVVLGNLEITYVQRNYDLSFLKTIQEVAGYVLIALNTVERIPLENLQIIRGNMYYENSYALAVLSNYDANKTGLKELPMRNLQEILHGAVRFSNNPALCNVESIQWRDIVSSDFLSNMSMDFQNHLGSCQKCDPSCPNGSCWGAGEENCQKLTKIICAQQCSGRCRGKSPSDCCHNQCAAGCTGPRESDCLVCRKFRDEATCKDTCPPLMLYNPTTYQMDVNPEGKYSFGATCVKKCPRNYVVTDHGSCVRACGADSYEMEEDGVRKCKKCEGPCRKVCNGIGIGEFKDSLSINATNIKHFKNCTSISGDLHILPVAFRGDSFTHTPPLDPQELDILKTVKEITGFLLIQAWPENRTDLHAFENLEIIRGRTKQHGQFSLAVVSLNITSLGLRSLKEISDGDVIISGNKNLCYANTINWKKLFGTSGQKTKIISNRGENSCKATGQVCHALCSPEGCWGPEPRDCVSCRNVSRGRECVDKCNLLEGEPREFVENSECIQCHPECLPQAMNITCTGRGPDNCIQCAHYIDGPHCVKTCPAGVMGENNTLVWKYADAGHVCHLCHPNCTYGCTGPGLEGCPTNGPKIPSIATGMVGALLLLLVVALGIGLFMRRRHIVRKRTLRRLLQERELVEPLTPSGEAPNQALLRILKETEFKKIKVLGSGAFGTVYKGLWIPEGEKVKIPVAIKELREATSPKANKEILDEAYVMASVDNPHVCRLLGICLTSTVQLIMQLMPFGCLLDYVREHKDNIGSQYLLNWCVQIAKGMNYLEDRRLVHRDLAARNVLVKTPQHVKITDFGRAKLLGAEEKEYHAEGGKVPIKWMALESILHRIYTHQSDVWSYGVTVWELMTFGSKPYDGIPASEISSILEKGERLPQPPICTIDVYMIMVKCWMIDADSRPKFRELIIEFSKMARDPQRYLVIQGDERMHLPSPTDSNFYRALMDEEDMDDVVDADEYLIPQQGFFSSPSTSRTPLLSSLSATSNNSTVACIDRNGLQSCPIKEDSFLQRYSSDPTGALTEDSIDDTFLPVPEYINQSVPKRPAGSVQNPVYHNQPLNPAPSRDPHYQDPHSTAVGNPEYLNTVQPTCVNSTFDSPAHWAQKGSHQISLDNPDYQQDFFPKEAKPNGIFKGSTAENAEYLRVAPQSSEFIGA

Row | GI50 [1] | GI50 [2] | GI50 (A431 (EGFR WT)) | IC50 (EGFR WT) | IC50 (EGFR L858R/T790M) | IC50 (BTK) | IC50 (JAK3) | SMILES
1 | < 50 nM | < 50 nM | > 1000 nM | 100 to 1000 nM | < 50 nM | ≤ 50 nM | ≤ 50 nM | C=CC(=O)Nc1cccc(Oc2nc(Nc3ccc(N4CCC(N5CCCCC5)CC4)cc3)nc3ccsc23)c1 [Example 48]
2 | < 50 nM | < 50 nM | > 1000 nM | – | – | ≤ 50 nM | ≤ 50 nM | C=CC(=O)Nc1ccc(F)c(Nc2nc(Nc3ccc(N4CCN(C)CC4)c(F)c3)nc3ccsc23)c1 [Example 219, N-(4-fluoro-3-(2-(3-fluoro-4-(4-methyl-piperazin-1-yl)-phenylamino)-thieno[3,2-d]pyrimidin-4-ylamino)-phenyl)-acrylamide]
3 | < 50 nM | < 50 nM | – | > 1000 nM | < 50 nM | – | – | C=CC(=O)Nc1cccc(Nc2nc(Nc3ccc(N4CCN(C)CC4)c(F)c3)nc3ccsc23)c1 [Example 215]
4 | < 50 nM | < 50 nM | > 1000 nM | > 1000 nM | < 50 nM | – | – | C=CC(=O)Nc1cccc(Oc2nc(Nc3ccc(N4CCOCC4)c(F)c3)nc3ccsc23)c1 [Example 122]
5 | < 50 nM | < 50 nM | > 1000 nM | – | – | ≤ 50 nM | ≤ 50 nM | C=CC(=O)Nc1cccc(Oc2nc(Nc3ccc(CN4CCC(N(C)C)CC4)cc3)nc3ccsc23)c1 [Example 180]
6 | < 50 nM | 100 to 1000 nM | > 1000 nM | – | – | ≤ 50 nM | 50 to 100 nM | C=CC(=O)Nc1cccc(Oc2nc(Nc3ccc(N4CCC(N5CCN(CC)CC5)CC4)cc3)nc3ccsc23)c1 [Example 50]
7 | 50 to 100 nM | < 50 nM | > 1000 nM | – | – | 50 to 100 nM | 50 to 100 nM | C=CC(=O)Nc1cccc(Oc2nc(Nc3ccc(CN4CCOCC4)cc3)nc3ccsc23)c1 [Example 187]
8 | < 50 nM | < 50 nM | 100 to 1000 nM | – | – | ≤ 50 nM | ≤ 50 nM | C=CC(=O)Nc1cccc(Oc2nc(Nc3ccc(CN(C)C)cc3)nc3ccsc23)c1 [Example 173]
9 | < 50 nM | < 50 nM | > 1000 nM | – | – | 50 to 100 nM | 50 to 100 nM | C=CC(=O)Nc1cccc(Oc2nc(Nc3ccc(CN4CCN(CC)CC4)cc3)nc3ccsc23)c1 [Example 183]
10 | 50 to 100 nM | < 50 nM | > 1000 nM | – | – | ≤ 50 nM | 50 to 100 nM | C=CC(=O)Nc1cccc(Oc2nc(Nc3ccc(CCN4CCN(CC)CC4)cc3)nc3ccsc23)c1 [Example 99]
11 | < 50 nM | < 50 nM | > 1000 nM | – | – | ≤ 50 nM | 50 to 100 nM | C=CC(=O)Nc1cccc(Oc2nc(Nc3ccc(N4CCC(CN5CCCCC5)CC4)cc3)nc3ccsc23)c1 [Example 42]
12 | < 50 nM | < 50 nM | 100 to 1000 nM | – | – | ≤ 50 nM | ≤ 50 nM | C=CC(=O)Nc1cccc(Oc2nc(Nc3ccc(N4CCN(C(C)C)CC4)cc3)nc3ccoc23)c1 [Example 229]
13 | < 50 nM | < 50 nM | > 1000 nM | – | – | ≤ 50 nM | ≤ 50 nM | C=CC(=O)Nc1cccc(Oc2nc(Nc3ccc(CN4CCC(N5CCOCC5)CC4)cc3)nc3ccsc23)c1 [Example 181]
14 | < 50 nM | < 50 nM | > 1000 nM | – | – | ≤ 50 nM | ≤ 50 nM | C=CC(=O)Nc1cccc(Oc2nc(Nc3ccc(C4CCN(CC)CC4)cc3)nc3ccsc23)c1 [Example 53]
15 | < 50 nM | < 50 nM | 100 to 1000 nM | – | – | ≤ 50 nM | ≤ 50 nM | C=CC(=O)Nc1cccc(Oc2nc(Nc3ccc(N4CCN(C(C)C)CC4)cc3)nc3ccsc23)c1 [Example 11]
16 | < 50 nM | < 50 nM | > 1000 nM | – | – | ≤ 50 nM | 50 to 100 nM | C=CC(=O)Nc1cccc(Oc2nc(Nc3ccc(N4CCN(C)CC4)c(F)c3)nc3ccsc23)c1 [Example 3]
17 | < 50 nM | < 50 nM | > 1000 nM | – | – | ≤ 50 nM | ≤ 50 nM | C=CC(=O)Nc1cccc(Oc2nc(Nc3ccc(C(=O)NC4CCN(C)CC4)cc3)nc3ccsc23)c1 [Example 82]
18 | < 50 nM | < 50 nM | – | > 1000 nM | < 50 nM | – | – | C=CC(=O)Nc1cccc(Oc2nc(Nc3ccc(C4CCCN(C)C4)cc3OC)nc3ccsc23)c1 (stereo not shown) [Example 115]
19 | < 50 nM | < 50 nM | > 1000 nM | – | – | ≤ 50 nM | ≤ 50 nM | C=CC(=O)Nc1cccc(Sc2nc(Nc3ccc(N4CCN(C)CC4)cc3)nc3ccsc23)c1 [Example 223, N-(3-(2-(4-(4-methylpiperazin-1-yl)phenylamino)thieno[3,2-d]pyrimidin-4-ylthio)phenyl)acrylamide]
20 | < 50 nM | < 50 nM | > 1000 nM | 100 to 1000 nM | < 50 nM | – | – | C=CC(=O)Nc1cccc(Nc2nc(Nc3ccc(N4CCN(C)CC4)cc3)nc3ccsc23)c1 [Example 206, N-(3-(2-(4-(4-methylpiperazin-1-yl)phenylamino)thieno[3,2-d]pyrimidin-4-ylamino)phenyl)acrylamide]
